In PubChem BioAssay (NCI):
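All cell lines were grown in 96-well plates and treated with compound for 48 hours. GI50: concentration for 50% inhibition of growth. Definition used: TGI = concentration required for complete inhibition of growth.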

Assays:
Assay in all cases: growth of human tumour cells (NCI), 48 h
U251 CNS = system: U251 CNS
IGROV1 ovarian = system: IGROV1 ovarian
UACC-257 melanoma = system: UACC-257 melanoma
A549 NSCLC = system: A549 NSCLC
HOP-92 NSCLC = system: HOP-92 NSCLC
RXF 393 renal = system: RXF 393 renal
SK-MEL-28 melanoma = system: SK-MEL-28 melanoma
SW-620 colon = system: SW-620 colon
A498 renal = system: A498 renal
NCI-H522 lung = system: NCI-H522 lung
RPMI-8226 leukemia = system: RPMI-8226 leukemia
HCT-116 colon = system: HCT-116 colon
COLO 205 colon = system: COLO 205 colon
SF-295 CNS = system: SF-295 CNS
LOX IMVI melanoma = system: LOX IMVI melanoma
SNB-75 CNS = system: SNB-75 CNS
OVCAR-4 ovarian = system: OVCAR-4 ovarian
SK-MEL-5 melanoma = system: SK-MEL-5 melanoma
OVCAR-3 ovarian = system: OVCAR-3 ovarian
SK-MEL-2 melanoma = system: SK-MEL-2 melanoma
NCI/ADR-RES ovarian = system: NCI/ADR-RES ovarian
SN12C renal = system: SN12C renal
HT29 colon = system: HT29 colon
HCT-15 colon = system: HCT-15 colon
HCC-2998 colon = system: HCC-2998 colon
T-47D breast = system: T-47D breast
SNB-19 CNS = system: SNB-19 CNS
SF-539 CNS = system: SF-539 CNS
SK-OV-3 ovarian = system: SK-OV-3 ovarian
OVCAR-5 ovarian = system: OVCAR-5 ovarian
MDA-MB-435 = system: MDA-MB-435
NCI-H460 lung = system: NCI-H460 lung
KM12 colon = system: KM12 colon
NCI-H226 lung = system: NCI-H226 lung
MDA-MB-231 breast = system: MDA-MB-231 breast
PC-3 prostate = system: PC-3 prostate
HL-60(TB) leukemia = system: HL-60(TB) leukemia
UO-31 renal = system: UO-31 renal
BT-549 breast = system: BT-549 breast
ACHN renal = system: ACHN renal
CAKI-1 renal = system: CAKI-1 renal
HOP-62 NSCLC = system: HOP-62 NSCLC
OVCAR-8 ovarian = system: OVCAR-8 ovarian
M14 melanoma = system: M14 melanoma
786-0 renal = system: 786-0 renal
UACC-62 melanoma = system: UACC-62 melanoma
NCI-H23 lung = system: NCI-H23 lung
DU-145 prostate = system: DU-145 prostate
MALME-3M melanoma = system: MALME-3M melanoma
SF-268 CNS = system: SF-268 CNS
CCRF-CEM leukemia = system: CCRF-CEM leukemia
MOLT-4 leukemia = system: MOLT-4 leukemia
TK-10 renal = system: TK-10 renal
SR leukemia = system: SR leukemia
MCF7 breast = system: MCF7 breast
K-562 leukemia = system: K-562 leukemia
EKVX NSCLC = system: EKVX NSCLC
HS 578T breast = system: HS 578T breast

CCCCCCCCOC(=O)CC[C@@H](C)[C@H]1CC[C@H]2[C@@H]3[C@H](OC(=O)CCN)C[C@@H]4C[C@H](OC(=O)CCN)CC[C@]4(C)[C@H]3C[C@H](OC(=O)CCN)[C@]12C
GI50 (U251 CNS): 1.95 µM
TGI (U251 CNS): 3.61 µM
GI50 (IGROV1 ovarian): 3.24 µM
TGI (IGROV1 ovarian): 9.1 µM
GI50 (UACC-257 melanoma): 3.84 µM
TGI (UACC-257 melanoma): 16.5 µM
GI50 (A549 NSCLC): 10.9 µM
TGI (A549 NSCLC): 27.1 µM
GI50 (HOP-92 NSCLC): 2.29 µM
TGI (HOP-92 NSCLC): 6.74 µM
GI50 (RXF 393 renal): 9.66 µM
TGI (RXF 393 renal): 29 µM
GI50 (SK-MEL-28 melanoma): 3.52 µM
TGI (SK-MEL-28 melanoma): 15.1 µM
GI50 (SW-620 colon): 1.95 µM
TGI (SW-620 colon): 3.93 µM
GI50 (A498 renal): 23.8 µM
TGI (A498 renal): 48.1 µM
GI50 (NCI-H522 lung): 2.26 µM
TGI (NCI-H522 lung): 4.42 µM
GI50 (RPMI-8226 leukemia): 8.42 µM
TGI (RPMI-8226 leukemia): 33.6 µM
GI50 (HCT-116 colon): 2.43 µM
TGI (HCT-116 colon): 5.43 µM
GI50 (COLO 205 colon): 4.74 µM
TGI (COLO 205 colon): 20.6 µM
GI50 (SF-295 CNS): 3.51 µM
TGI (SF-295 CNS): 15.9 µM
GI50 (LOX IMVI melanoma): 2.23 µM
TGI (LOX IMVI melanoma): 4.51 µM
GI50 (SNB-75 CNS): 3.32 µM
TGI (SNB-75 CNS): 13.6 µM
GI50 (OVCAR-4 ovarian): 6.31 µM
TGI (OVCAR-4 ovarian): 28.5 µM
GI50 (SK-MEL-5 melanoma): 19.4 µM
TGI (SK-MEL-5 melanoma): 51.7 µM
GI50 (OVCAR-3 ovarian): 14.6 µM
TGI (OVCAR-3 ovarian): 35.4 µM
GI50 (SK-MEL-2 melanoma): 4.88 µM
TGI (SK-MEL-2 melanoma): 18.7 µM
GI50 (NCI/ADR-RES ovarian): 17.2 µM
TGI (NCI/ADR-RES ovarian): 37.8 µM
GI50 (SN12C renal): 6.62 µM
TGI (SN12C renal): 22.2 µM
GI50 (HT29 colon): 2.44 µM
TGI (HT29 colon): 5.79 µM
GI50 (HCT-15 colon): 16.4 µM
TGI (HCT-15 colon): 38.9 µM
GI50 (HCC-2998 colon): 13.8 µM
TGI (HCC-2998 colon): 39 µM
GI50 (T-47D breast): 12.3 µM
TGI (T-47D breast): 39.9 µM
GI50 (SNB-19 CNS): 3.48 µM
TGI (SNB-19 CNS): 13.8 µM
GI50 (SF-539 CNS): 3.01 µM
TGI (SF-539 CNS): 8.77 µM
GI50 (SK-OV-3 ovarian): 10.5 µM
TGI (SK-OV-3 ovarian): 27 µM
GI50 (OVCAR-5 ovarian): 3.24 µM
TGI (OVCAR-5 ovarian): 10.1 µM
GI50 (MDA-MB-435): 3.96 µM
TGI (MDA-MB-435): 18.4 µM
GI50 (NCI-H460 lung): 3.18 µM
TGI (NCI-H460 lung): 10.6 µM
GI50 (KM12 colon): 3.04 µM
TGI (KM12 colon): 7.51 µM
GI50 (NCI-H226 lung): 13 µM
TGI (NCI-H226 lung): 44.8 µM
GI50 (MDA-MB-231 breast): 2.44 µM
TGI (MDA-MB-231 breast): 7.9 µM
GI50 (PC-3 prostate): 7.17 µM
TGI (PC-3 prostate): 22.4 µM
GI50 (HL-60(TB) leukemia): 3.32 µM
TGI (HL-60(TB) leukemia): 11.3 µM
GI50 (UO-31 renal): 21.9 µM
TGI (UO-31 renal): 42 µM
GI50 (BT-549 breast): 20.4 µM
TGI (BT-549 breast): 46.9 µM
GI50 (ACHN renal): 15.9 µM
TGI (ACHN renal): 32.2 µM
GI50 (CAKI-1 renal): 18 µM
TGI (CAKI-1 renal): 34.6 µM
GI50 (HOP-62 NSCLC): 2.71 µM
TGI (HOP-62 NSCLC): 7.14 µM
GI50 (OVCAR-8 ovarian): 2.14 µM
TGI (OVCAR-8 ovarian): 4.62 µM
GI50 (M14 melanoma): 4.61 µM
TGI (M14 melanoma): 22.9 µM
GI50 (786-0 renal): 15 µM
TGI (786-0 renal): 37.1 µM
GI50 (UACC-62 melanoma): 3.45 µM
TGI (UACC-62 melanoma): 12.7 µM
GI50 (NCI-H23 lung): 10 µM
TGI (NCI-H23 lung): 29.9 µM
GI50 (DU-145 prostate): 3.4 µM
TGI (DU-145 prostate): 9.7 µM
GI50 (MALME-3M melanoma): 2.58 µM
TGI (MALME-3M melanoma): 5.86 µM
GI50 (SF-268 CNS): 3.34 µM
TGI (SF-268 CNS): 9.12 µM

Cc1nc(N)nc2c1CCC(O)S2 (stereo not given)
GI50 (U251 CNS): 3.3 µM
TGI (U251 CNS): 11.5 µM
GI50 (IGROV1 ovarian): 4.67 µM
TGI (IGROV1 ovarian): 17.9 µM
GI50 (UACC-257 melanoma): 12.9 µM
TGI (UACC-257 melanoma): 47.1 µM
GI50 (A549 NSCLC): 19.3 µM
TGI (A549 NSCLC): 78.2 µM
GI50 (HOP-92 NSCLC): 2.54 µM
TGI (HOP-92 NSCLC): 12.3 µM
GI50 (RXF 393 renal): 5.4 µM
TGI (RXF 393 renal): 27 µM
GI50 (SK-MEL-28 melanoma): 6.11 µM
TGI (SK-MEL-28 melanoma): 28.9 µM
GI50 (SW-620 colon): 3.64 µM
TGI (SW-620 colon): 14.1 µM
GI50 (A498 renal): 17.7 µM
TGI (A498 renal): 93.1 µM
GI50 (NCI-H522 lung): 17 µM
TGI (NCI-H522 lung): 34 µM
GI50 (RPMI-8226 leukemia): 21.3 µM
TGI (RPMI-8226 leukemia): > 100 µM
GI50 (HCT-116 colon): 2.39 µM
TGI (HCT-116 colon): 6.04 µM
GI50 (COLO 205 colon): 5.31 µM
TGI (COLO 205 colon): 16.7 µM
GI50 (SF-295 CNS): 14.8 µM
TGI (SF-295 CNS): 44.3 µM
GI50 (LOX IMVI melanoma): 10.4 µM
TGI (LOX IMVI melanoma): 24.5 µM
GI50 (CCRF-CEM leukemia): 4.29 µM
TGI (CCRF-CEM leukemia): 69.1 µM
GI50 (SNB-75 CNS): 11.2 µM
TGI (SNB-75 CNS): 39.8 µM
GI50 (OVCAR-4 ovarian): 3.26 µM
TGI (OVCAR-4 ovarian): 14.2 µM
GI50 (SK-MEL-5 melanoma): 12.5 µM
TGI (SK-MEL-5 melanoma): 26.3 µM
GI50 (OVCAR-3 ovarian): 2.76 µM
TGI (OVCAR-3 ovarian): 7.7 µM
GI50 (NCI/ADR-RES ovarian): > 100 µM
TGI (NCI/ADR-RES ovarian): > 100 µM
GI50 (MOLT-4 leukemia): 2.91 µM
TGI (MOLT-4 leukemia): 8.36 µM
GI50 (SN12C renal): 7.81 µM
TGI (SN12C renal): 56.2 µM
GI50 (HT29 colon): 4.24 µM
TGI (HT29 colon): 17.3 µM
GI50 (HCT-15 colon): 26.3 µM
TGI (HCT-15 colon): > 100 µM
GI50 (HCC-2998 colon): 9.46 µM
TGI (HCC-2998 colon): 22.2 µM
GI50 (TK-10 renal): 32.1 µM
TGI (TK-10 renal): > 100 µM
GI50 (T-47D breast): 5.25 µM
TGI (T-47D breast): 30.2 µM
GI50 (SNB-19 CNS): 6.43 µM
TGI (SNB-19 CNS): 41.1 µM
GI50 (SF-539 CNS): 12.3 µM
TGI (SF-539 CNS): 27.9 µM
GI50 (SR leukemia): 4.21 µM
TGI (SR leukemia): > 100 µM
GI50 (SK-OV-3 ovarian): 11.3 µM
TGI (SK-OV-3 ovarian): 25.6 µM
GI50 (OVCAR-5 ovarian): 20.7 µM
TGI (OVCAR-5 ovarian): 74.3 µM
GI50 (MDA-MB-435): 4.51 µM
TGI (MDA-MB-435): 18.7 µM
GI50 (MCF7 breast): 3.02 µM
TGI (MCF7 breast): 10.4 µM
GI50 (NCI-H460 lung): 3.86 µM
TGI (NCI-H460 lung): 15.3 µM
GI50 (KM12 colon): 5.46 µM
TGI (KM12 colon): 19.6 µM
GI50 (MDA-MB-231 breast): 10.2 µM
TGI (MDA-MB-231 breast): 32.8 µM
GI50 (PC-3 prostate): 3.52 µM
TGI (PC-3 prostate): 44.7 µM
GI50 (HL-60(TB) leukemia): 11.4 µM
TGI (HL-60(TB) leukemia): 33 µM
GI50 (UO-31 renal): 39.7 µM
TGI (UO-31 renal): > 100 µM
GI50 (K-562 leukemia): 5.18 µM
TGI (K-562 leukemia): > 100 µM
GI50 (ACHN renal): 22 µM
TGI (ACHN renal): > 100 µM
GI50 (EKVX NSCLC): 24.8 µM
TGI (EKVX NSCLC): 93.2 µM
GI50 (CAKI-1 renal): 33.7 µM
TGI (CAKI-1 renal): > 100 µM
GI50 (HOP-62 NSCLC): 5.44 µM
TGI (HOP-62 NSCLC): 18.5 µM
GI50 (OVCAR-8 ovarian): 3.73 µM
TGI (OVCAR-8 ovarian): 24 µM
GI50 (M14 melanoma): 8.44 µM
TGI (M14 melanoma): 31.6 µM
GI50 (786-0 renal): 10.7 µM
TGI (786-0 renal): 24.5 µM
GI50 (UACC-62 melanoma): 11.3 µM
TGI (UACC-62 melanoma): 25.8 µM
GI50 (NCI-H23 lung): 3.66 µM
TGI (NCI-H23 lung): 17.2 µM
GI50 (DU-145 prostate): 3.5 µM
TGI (DU-145 prostate): 12.2 µM
GI50 (MALME-3M melanoma): 11.3 µM
TGI (MALME-3M melanoma): 39.4 µM
GI50 (SF-268 CNS): 4.84 µM
TGI (SF-268 CNS): 25.6 µM
GI50 (HS 578T breast): 10.7 µM
TGI (HS 578T breast): > 100 µM
